Laboratory results taken from patent US20080119462A1, “METHOD FOR TREATING VASCULAR HYPERPERMEABLE DISEASE” (Sucampo AG, priority 2003, published 2008).

Columns and labels:
[1] = target: T1, Cloned human DAO (Homo sapiens, UniProt P19801); test: Diamine oxidase (DAO, histaminase) activity assay with 14C-putrescine; assay type: biochemical
T1 construct: made in house
T1 sequence (P19801 20-751): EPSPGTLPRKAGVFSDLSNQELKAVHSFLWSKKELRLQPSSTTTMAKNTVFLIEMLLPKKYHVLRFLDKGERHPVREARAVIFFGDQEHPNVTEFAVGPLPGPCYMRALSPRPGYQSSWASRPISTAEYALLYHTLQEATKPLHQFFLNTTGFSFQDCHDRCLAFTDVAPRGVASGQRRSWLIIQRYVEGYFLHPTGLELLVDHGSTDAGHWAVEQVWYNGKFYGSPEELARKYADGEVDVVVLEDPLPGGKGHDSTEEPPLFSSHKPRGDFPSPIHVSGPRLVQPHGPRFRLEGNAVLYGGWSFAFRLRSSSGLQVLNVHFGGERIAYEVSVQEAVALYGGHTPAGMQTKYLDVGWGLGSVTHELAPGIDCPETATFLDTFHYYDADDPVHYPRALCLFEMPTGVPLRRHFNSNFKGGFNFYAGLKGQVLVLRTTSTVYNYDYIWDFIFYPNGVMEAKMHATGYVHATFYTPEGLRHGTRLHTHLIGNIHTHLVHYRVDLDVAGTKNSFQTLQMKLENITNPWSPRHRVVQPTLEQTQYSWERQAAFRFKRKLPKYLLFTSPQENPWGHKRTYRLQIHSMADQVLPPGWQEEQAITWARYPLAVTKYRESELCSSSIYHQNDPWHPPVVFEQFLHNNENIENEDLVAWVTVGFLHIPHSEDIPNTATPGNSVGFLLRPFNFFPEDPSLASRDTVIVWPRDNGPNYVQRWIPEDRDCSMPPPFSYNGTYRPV
Procedure: (§1) VAP-1 enzyme (SSAO) activity in both human and rat plasma was determined by a radiochemical-enzyme assay using ^14C-benzylamine as artificial substrate. The enzyme suspension prepared from blood plasma was pre-incubated with Compound A in 96-well microplate at room temperature for 30 min. The enzyme suspension was then incubated with ^14C-benzylamine (2×10^−5 mol/l final concentration) in a final volume of 50 μl at 37° C. for 1 hour. The enzyme reaction was terminated by adding 2 mol/l (50 μl) citric acid. The oxidized products were directly extracted into a 200 μl toluene scintillator, and its radioactivity was measured by a scintillation spectrometer. Monoamine oxidase (MAO) and diamine oxidase (DAO, histaminase) activities were also determined by similar method using ^14C-phenylethylamine and ^14C-putrescine as substrate, respectively. Cloned DAO from cDNA libraries was used in human DAO assay. Inhibition activity was expressed as IC50 (μmol/l) value.

[2] = target: T2, retinal VAP-1 (Rattus norvegicus, UniProt O08590); test: Retinal VAP-1 activity in STZ diabetic rats after eye-drop instillation; assay type: in vivo
T2 construct: from tissue; host or cells: retina of STZ diabetic rats
T2 sequence (O08590 1-763): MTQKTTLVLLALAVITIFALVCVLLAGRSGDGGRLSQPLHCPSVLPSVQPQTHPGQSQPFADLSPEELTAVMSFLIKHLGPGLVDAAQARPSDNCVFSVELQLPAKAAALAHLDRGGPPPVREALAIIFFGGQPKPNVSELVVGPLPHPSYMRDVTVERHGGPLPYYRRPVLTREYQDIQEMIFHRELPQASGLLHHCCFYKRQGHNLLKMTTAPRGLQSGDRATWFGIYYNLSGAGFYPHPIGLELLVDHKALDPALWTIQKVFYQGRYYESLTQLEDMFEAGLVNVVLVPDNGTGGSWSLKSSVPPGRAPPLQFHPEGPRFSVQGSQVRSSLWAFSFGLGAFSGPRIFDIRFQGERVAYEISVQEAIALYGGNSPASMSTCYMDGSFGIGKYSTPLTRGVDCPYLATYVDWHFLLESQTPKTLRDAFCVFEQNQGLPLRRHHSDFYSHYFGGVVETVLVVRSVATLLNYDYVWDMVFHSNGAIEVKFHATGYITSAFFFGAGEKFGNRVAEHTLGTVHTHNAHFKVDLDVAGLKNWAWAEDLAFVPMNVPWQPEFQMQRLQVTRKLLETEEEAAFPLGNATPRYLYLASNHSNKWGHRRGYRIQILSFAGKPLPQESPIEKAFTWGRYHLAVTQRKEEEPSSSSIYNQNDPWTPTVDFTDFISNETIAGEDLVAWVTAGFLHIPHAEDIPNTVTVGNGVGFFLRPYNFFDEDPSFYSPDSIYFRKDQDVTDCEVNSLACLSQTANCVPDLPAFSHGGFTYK
Procedure: A 0.1% solution of Compound A was instilled into the eyes of STZ diabetic rats (10 μl/eye) prepared in the same manner as in Example 2. To the normal group and STZ control group, a vehicle was instilled. At 6 hours from the instillation, the retina was removed from the animals and the retinal VAP-1 activity was determined.

[3] = target: T3, Human plasma SSAO (Homo sapiens, UniProt Q16853); test: Radiochemical-enzyme assay of VAP-1 enzyme (SSAO) activity with 14C-benzylamine, human plasma; assay type: biochemical
T3 construct: The enzyme suspension prepared from blood plasma was pre-incubated with Compound A; from tissue; host or cells: human blood plasma
T3 sequence (Q16853 27-763 limits assumed): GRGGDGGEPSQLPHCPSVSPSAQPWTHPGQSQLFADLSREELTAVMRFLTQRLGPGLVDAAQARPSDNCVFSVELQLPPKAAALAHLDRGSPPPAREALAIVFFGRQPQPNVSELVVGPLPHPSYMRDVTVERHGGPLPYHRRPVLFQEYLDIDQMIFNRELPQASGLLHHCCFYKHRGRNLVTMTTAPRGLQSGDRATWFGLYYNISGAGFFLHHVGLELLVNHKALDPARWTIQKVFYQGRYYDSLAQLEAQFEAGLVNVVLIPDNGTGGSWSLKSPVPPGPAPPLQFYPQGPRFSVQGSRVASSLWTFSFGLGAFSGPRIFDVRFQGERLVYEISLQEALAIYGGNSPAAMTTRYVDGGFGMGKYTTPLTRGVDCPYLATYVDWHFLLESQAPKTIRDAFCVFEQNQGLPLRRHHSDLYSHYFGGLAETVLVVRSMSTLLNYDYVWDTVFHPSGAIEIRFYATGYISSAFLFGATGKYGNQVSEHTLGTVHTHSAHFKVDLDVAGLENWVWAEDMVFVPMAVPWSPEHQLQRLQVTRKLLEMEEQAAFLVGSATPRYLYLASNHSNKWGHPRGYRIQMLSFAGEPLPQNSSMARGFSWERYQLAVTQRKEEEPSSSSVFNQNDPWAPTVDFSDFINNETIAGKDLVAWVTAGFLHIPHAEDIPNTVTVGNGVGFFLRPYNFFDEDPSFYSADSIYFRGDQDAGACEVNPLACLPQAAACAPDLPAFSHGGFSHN
Procedure: as §1

`CC(=O)Nc1nc(CCc2ccc(NC(=N)N)cc2)cs1` [Compound A, N-{4-[2-(4-{[amino(imino)methyl]amino}phenyl)ethyl]-1,3-thiazol-2-yl}acetamide] was tested, and the “Inhibition of the enzyme activity of cloned DAO (in words)” value [1] was “not”, the IC50 ([1]; 14C-putrescine as substrate, read-out: Inhibitory effect (IC50 values) Cloned human DAO) was > 100000 nM and the “Effect on the increased retinal VAP-1 activity in STZ diabetic rats (in words)” value ([2]; 0.1% solution instilled into the eyes, 6 hours) was “completely inhibited”. The “Retinal VAP-1 activity” value ([2]; STZ diabetic rats, 0.1%, ocular instillation (10 μl/eye), 6 hours after instillation, mean ± S.E.M., 4 rats) was 4.86 ± 0.70 pmol/min/mg protein, the “Inhibition of the enzyme activity of human plasma SSAO (in words)” value [3] was “completely inhibited” and the IC50 ([3]; 30 min pre-incubation, 14C-benzylamine 2×10^−5 mol/l, 37° C., 1 hour, read-out: Inhibitory effect (IC50 values) Human plasma SSAO) was 150 nM.
